For one compound, EC50 results are on record in PubChem BioAssay AID1224900.

Structures are written as SMILES.

In general, EC50 refers to the concentration at which the effect is half-maximal.

The assay has as its system MDA-MB-231 viability, PrestoBlue fluorescence. Put plainly: antiproliferative effect, triple-negative breast cancer line – cell-based, MDA-MB-231, mTOR inhibitor project, dose response (AID 1224900).

On to `CCOC(Cn1nc(-c2ccc3oc(N)nc3c2)c2c(N)ncnc21)OCC`, for which the EC50 is 72 nM.
